By IC50 is commonly meant the concentration at which inhibition is half-maximal. A lower IC50 goes with greater potency.

Active and inactive are the calls of the source. The calls are words filed in the database; no cut-off is given here.

Experiment [1] has as its system IMR-32. Briefly: Cytotoxicity against human IMR32 cells after 48 hrs by SRB assay. In kind it is cell-based. Particulars: IMR-32, 48 h. For orientation: The SRB assay estimates cell density from bound dye.
A further experiment concerns DU-145. The experiment in a line: Antiproliferative activity against human DU145 cells. In kind it is functional, cell-based.
The test system of another experiment is A549. The experiment in a line: Antiproliferative activity against human A549 cells. In kind it is functional, cell-based.
For a further experiment, the system named is MCF7. Briefly: Antiproliferative activity against human MCF7 cells. In kind it is functional, cell-based.
For experiment [2], the system named is IMR-32. Briefly: Neurotrophic activity in human IMR32 cells assessed as appearance of neurites at 1 to 10 uM after 96 hrs by bright field microscopic analysis. In kind it is functional, cell-based.
For another experiment, the system named is HepG2. The experiment in a line: Antiproliferative activity against human HepG2 cells. In kind it is functional, cell-based.

As to `CC(=O)N1c2cc([N+](=O)[O-])ccc2[C@H]2[C@@H](O)[C@H](N=[N+]=[N-])C[C@H]2[C@H]1c1ccccc1`, the IC50 with IMR-32 [1] was more than 100 µM. Moreover, the result in the experiment on DU-145, in the experiment on A549, in the experiment with MCF7, in the experiment with IMR-32 [2] and with HepG2 was inactive.

In the experiment on IMR-32 [1], `CC(=O)N1c2ccccc2[C@@H]2[C@@H](C[C@@H]3O[C@H]23)[C@H]1c1ccc(Cl)cc1` yielded an IC50 of more than 100 µM. The outcome in the experiment on DU-145, with A549, in the experiment with MCF7, in the experiment with IMR-32 [2] and in the experiment with HepG2 was inactive.

In the experiment with IMR-32 [1], `CC(=O)N1c2ccccc2[C@H]2[C@@H](O)[C@H](N=[N+]=[N-])C[C@H]2[C@H]1c1cccc(Br)c1` came in with an IC50 of more than 100 µM. For the same molecule, the result in the experiment with DU-145, with A549, with MCF7, with IMR-32 [2] and in the experiment with HepG2 was inactive.

In the case of `COc1cccc2c1C(=O)c1c(O)c3c(c(O)c1C2=O)C[C@@](O)(C(=O)CO)C[C@@H]3O[C@H]1C[C@H](N)[C@H](O)[C@H](C)O1` [DOXORUBICIN], half-maximal inhibition in the experiment on IMR-32 [1] (IC50) required 8.49 µM.

As to `C=CCO[C@H]1C(n2cc(-c3ccccc3)nn2)C[C@@H]2[C@H]1c1ccccc1N(C(C)=O)[C@@H]2c1ccccc1` (single isomer, unassigned), the IC50 in the experiment on IMR-32 [1] is 65 µM. The outcome in the experiment with DU-145, in the experiment with A549, with MCF7, in the experiment on IMR-32 [2] and in the experiment on HepG2 was inactive.

In the case of `O[C@@H]1[C@@H]2c3ccccc3N[C@H](c3ccc(Cl)cc3)[C@@H]2C[C@@H]1O`, half-maximal inhibition in the experiment with IMR-32 [1] (IC50) was put at 64.6 µM. Also, the outcome in the experiment with DU-145, with A549, in the experiment with MCF7, in the experiment with IMR-32 [2] and with HepG2 was inactive.

`CC(=O)N1c2ccccc2[C@H]2C=CC[C@H]2[C@H]1c1cccc(Br)c1` yielded an IC50 in the experiment on IMR-32 [1] of more than 100 µM. Further, the result in the experiment on DU-145, in the experiment on A549, with MCF7, in the experiment with IMR-32 [2] and in the experiment on HepG2 was inactive.

In the experiment with IMR-32 [1], `Cc1ccccc1[C@H]1Nc2ccccc2[C@H]2[C@@H](O)[C@@H](O)C[C@H]21` displayed an IC50 of more than 100 µM. Further, the outcome in the experiment with DU-145, in the experiment on A549, in the experiment with MCF7, in the experiment on IMR-32 [2] and in the experiment with HepG2 was inactive.

`C=CCO[C@@H]1[C@@H]2c3ccccc3N(C(C)=O)[C@H](c3cccc(Br)c3)[C@@H]2C[C@H]1N=[N+]=[N-]`: the half-maximal inhibitory concentration (IC50) in the experiment with IMR-32 [1] is more than 100 µM. Moreover, the result in the experiment on DU-145, with A549, in the experiment with MCF7, in the experiment with IMR-32 [2] and in the experiment on HepG2 was inactive.

As for `CC(=O)N1c2ccc(Br)cc2[C@H]2C=CC[C@H]2[C@H]1c1ccccc1`, in the experiment on IMR-32 [1], half-maximal inhibition (IC50) was put at 89.9 µM. Further, the outcome in the experiment with DU-145, in the experiment with A549, in the experiment with MCF7, in the experiment on IMR-32 [2] and in the experiment with HepG2 was inactive.

Take `Fc1ccc2c(c1)N[C@H](c1ccccc1)[C@@H]1CC=C[C@H]21`: in the experiment on IMR-32 [1], the IC50 is more than 100 µM. Besides, the outcome in the experiment on DU-145, with A549, in the experiment with MCF7, with IMR-32 [2] and in the experiment with HepG2 was inactive.

`CC(=O)N1c2ccccc2[C@H]2[C@@H](O)[C@@H](O)C[C@H]2[C@H]1c1ccccc1` showed an IC50 in the experiment with IMR-32 [1] of more than 100 µM. Further, the result in the experiment on DU-145, with A549, in the experiment with MCF7, with IMR-32 [2] and with HepG2 was inactive.

`O[C@@H]1[C@@H]2c3ccc(F)cc3N[C@H](c3ccccc3)[C@@H]2C[C@@H]1O` came in with a half-maximal inhibitory concentration (IC50) with IMR-32 [1] of more than 100 µM. Further, the outcome in the experiment with DU-145, in the experiment with A549, in the experiment on MCF7, with IMR-32 [2] and in the experiment with HepG2 was inactive.

In turn, `CC(=O)N1c2ccccc2[C@@H]2[C@@H](C[C@@H]3O[C@H]23)[C@H]1c1cccc(Br)c1` yielded a 50% inhibitory concentration (IC50) in the experiment with IMR-32 [1] of more than 100 µM. The outcome in the experiment with DU-145, with A549, with MCF7, in the experiment on IMR-32 [2] and in the experiment with HepG2 was inactive.

In turn, `CC(=O)N1c2ccccc2[C@H]2C=CC[C@H]2[C@H]1c1ccccc1` gave an IC50 in the experiment on IMR-32 [1] of 61.6 µM. Further, the result in the experiment with DU-145, in the experiment on A549, with MCF7, with IMR-32 [2] and in the experiment with HepG2 was inactive.

Take `CC(=O)N1c2ccccc2[C@H]2C=CC[C@H]2[C@H]1c1ccccc1C`: the IC50 with IMR-32 [1] was more than 100 µM. In addition, the result with DU-145, in the experiment on A549, in the experiment with MCF7, with IMR-32 [2] and in the experiment with HepG2 was inactive.

For `C=CCO[C@@H]1[C@@H]2c3ccccc3N(C(C)=O)[C@H](c3ccccc3)[C@@H]2C[C@H]1N=[N+]=[N-]`, the IC50 in the experiment with IMR-32 [1] came to 17.4 µM. The result in the experiment with DU-145, in the experiment on A549, in the experiment on MCF7, in the experiment with IMR-32 [2] and with HepG2 was inactive.

Regarding `CC(=O)N1c2ccccc2[C@H]2C=CC[C@H]2[C@H]1c1ccc(Cl)cc1`, in the experiment on IMR-32 [1], the IC50 was 94.7 µM. In addition, the outcome in the experiment with DU-145, with A549, with MCF7, with IMR-32 [2] and with HepG2 was inactive.

With `O[C@@H]1[C@@H]2c3ccccc3N[C@H](c3ccccc3)[C@@H]2C[C@@H]1O`, in the experiment on IMR-32 [1], the IC50 was more than 100 µM. Also, the outcome in the experiment with DU-145, in the experiment on A549, in the experiment on MCF7, in the experiment on IMR-32 [2] and in the experiment with HepG2 was inactive.

Regarding `Brc1cccc([C@H]2Nc3ccccc3[C@H]3C=CC[C@H]32)c1`, the IC50 with IMR-32 [1] was more than 100 µM. Further, the result in the experiment on DU-145, in the experiment with A549, in the experiment on MCF7, in the experiment on IMR-32 [2] and in the experiment on HepG2 was inactive.

Take `CC(=O)N1c2ccccc2[C@H]2[C@@H](O)[C@H](N=[N+]=[N-])C[C@H]2[C@H]1c1ccc(Cl)cc1`: in the experiment on IMR-32 [1], the IC50 is more than 100 µM. The result in the experiment on DU-145, in the experiment with A549, with MCF7, in the experiment on IMR-32 [2] and in the experiment on HepG2 was inactive.

`O[C@@H]1[C@@H]2c3cc(Br)ccc3N[C@H](c3ccccc3)[C@@H]2C[C@@H]1O` had an IC50 with IMR-32 [1] of more than 100 µM. In addition, the outcome in the experiment with DU-145, in the experiment on A549, in the experiment on MCF7, in the experiment with IMR-32 [2] and in the experiment with HepG2 was inactive.

`Brc1ccc2c(c1)[C@H]1C=CC[C@H]1[C@@H](c1ccccc1)N2` came in with an IC50 in the experiment with IMR-32 [1] of 94.4 µM. In addition, the outcome with DU-145, with A549, in the experiment with MCF7, in the experiment with IMR-32 [2] and in the experiment on HepG2 was inactive.

Take `Clc1ccc([C@H]2Nc3ccccc3[C@H]3C=CC[C@H]32)cc1`: in the experiment with IMR-32 [1], the IC50 is more than 100 µM. Also, the result in the experiment on DU-145, with A549, in the experiment with MCF7, with IMR-32 [2] and in the experiment on HepG2 was inactive.

In the experiment on IMR-32 [1], `C=CCO[C@@H]1[C@@H]2c3ccccc3N(C(C)=O)[C@H](c3ccc(Cl)cc3)[C@@H]2C[C@H]1N=[N+]=[N-]` had an IC50 of 66.5 µM. The outcome with DU-145, with A549, with MCF7, in the experiment on IMR-32 [2] and in the experiment on HepG2 was inactive.

As for `O=[N+]([O-])c1ccc2c(c1)N[C@H](c1ccccc1)[C@@H]1CC=C[C@H]21`, the IC50 in the experiment with IMR-32 [1] is more than 100 µM. Further, the result with DU-145, in the experiment on A549, in the experiment with MCF7, in the experiment with IMR-32 [2] and in the experiment with HepG2 was inactive.

For `Cc1ccccc1[C@H]1Nc2ccccc2[C@H]2C=CC[C@H]21`, the half-inhibitory concentration (IC50) in the experiment with IMR-32 [1] turned out to be 87.2 µM. Besides, the outcome with DU-145, with A549, in the experiment on MCF7, in the experiment on IMR-32 [2] and with HepG2 was inactive.

These data come from ChEMBL document CHEMBL4184140, “Expanding the tetrahydroquinoline pharmacophore” (Bioorg Med Chem Lett, 2017).
